These results are taken from ChEMBL document CHEMBL1201862, “PubChem BioAssay data set” (2004).

For orientation: IC50 means the point on the concentration scale where inhibition reaches its midpoint. As a reminder, the AC50 is the concentration at which the activity in the assay is half-maximal. One may read the EC50 as the concentration that produces a half-maximal response.

The target of assay [1] is T1, Nuclear receptor subfamily 0 group B member 1 (Homo sapiens, UniProt P51843).
T1 sequence (P51843 whole entry): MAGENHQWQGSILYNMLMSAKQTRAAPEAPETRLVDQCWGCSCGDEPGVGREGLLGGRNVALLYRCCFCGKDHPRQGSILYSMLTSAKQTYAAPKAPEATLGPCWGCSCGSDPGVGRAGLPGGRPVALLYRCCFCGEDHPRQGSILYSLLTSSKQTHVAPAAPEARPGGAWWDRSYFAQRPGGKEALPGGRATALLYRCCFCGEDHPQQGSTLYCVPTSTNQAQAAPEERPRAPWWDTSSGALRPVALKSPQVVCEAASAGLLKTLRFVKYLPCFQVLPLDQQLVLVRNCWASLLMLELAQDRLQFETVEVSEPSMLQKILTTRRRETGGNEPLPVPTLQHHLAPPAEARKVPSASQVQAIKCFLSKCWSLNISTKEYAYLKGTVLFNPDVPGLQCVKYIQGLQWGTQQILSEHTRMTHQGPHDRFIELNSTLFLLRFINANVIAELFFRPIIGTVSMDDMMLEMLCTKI
Put plainly: Luminescence-based cell-based high throughput dose response assay for inhibitors of the orphan nuclear receptor subfamily 0, group B, member 1 (DAX1; NR0B1). [Related pubchem assays (depositor defined):AID504766, AID504790]. Format: functional.

The subject of assay [2] is HEK293. Put plainly: cells. Format: functional, cell-based. The conditions noted are these: Homo sapiens.
For assay [3], the target named is Voltage-gated inwardly rectifying potassium channel KCNH2 (Homo sapiens, UniProt Q12809). The conditions noted are these: Potency.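 Also: confirmatory quantitative high-throughput screen measuring inhibition of hERG channel activity.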
Assay [4] can be described thus: cytotoxicity toward DRD oncogenic fibroblasts, dose response, cell-based, non-viral oncogenic, luminescence (AID 1934). Format: functional. The following applies: Homo sapiens.
Assay [5] addresses T2, DNA repair protein RAD52 homolog (Homo sapiens, UniProt P43351).
T2 sequence (P43351 whole entry): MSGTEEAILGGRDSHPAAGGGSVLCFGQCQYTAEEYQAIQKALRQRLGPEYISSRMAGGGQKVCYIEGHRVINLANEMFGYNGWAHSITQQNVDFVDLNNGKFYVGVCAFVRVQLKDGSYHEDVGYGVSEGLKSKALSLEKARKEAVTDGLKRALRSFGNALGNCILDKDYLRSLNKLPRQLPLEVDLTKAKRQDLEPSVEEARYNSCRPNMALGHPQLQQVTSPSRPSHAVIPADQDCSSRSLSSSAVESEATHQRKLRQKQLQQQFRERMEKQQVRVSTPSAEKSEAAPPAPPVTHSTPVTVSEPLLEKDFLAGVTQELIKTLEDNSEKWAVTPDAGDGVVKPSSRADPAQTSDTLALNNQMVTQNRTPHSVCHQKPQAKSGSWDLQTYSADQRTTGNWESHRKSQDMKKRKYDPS
Format: functional, biochemical.

Assay [6] has as its system HEK293. Put plainly: cells. The following applies: Homo sapiens.
Assay [7] has as its target T3, Rac GTPase-activating protein 1 (Homo sapiens, UniProt Q9H0H5).
T3 sequence (Q9H0H5 whole entry): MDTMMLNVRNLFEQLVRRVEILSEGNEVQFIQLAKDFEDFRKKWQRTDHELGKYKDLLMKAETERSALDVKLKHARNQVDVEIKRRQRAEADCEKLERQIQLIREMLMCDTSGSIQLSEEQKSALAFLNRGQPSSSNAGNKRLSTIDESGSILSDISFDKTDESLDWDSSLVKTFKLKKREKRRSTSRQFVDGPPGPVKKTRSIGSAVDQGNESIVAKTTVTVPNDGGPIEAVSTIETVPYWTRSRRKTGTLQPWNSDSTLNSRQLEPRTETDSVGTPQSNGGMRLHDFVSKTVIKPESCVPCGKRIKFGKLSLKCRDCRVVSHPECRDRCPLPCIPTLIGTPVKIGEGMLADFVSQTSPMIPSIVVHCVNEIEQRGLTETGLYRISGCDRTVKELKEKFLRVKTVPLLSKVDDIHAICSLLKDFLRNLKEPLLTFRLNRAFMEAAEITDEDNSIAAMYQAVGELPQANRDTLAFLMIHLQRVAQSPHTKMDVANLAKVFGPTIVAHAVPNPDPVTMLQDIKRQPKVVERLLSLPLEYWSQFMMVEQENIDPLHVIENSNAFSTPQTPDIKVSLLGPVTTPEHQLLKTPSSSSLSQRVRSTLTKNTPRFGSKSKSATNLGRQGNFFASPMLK
As to the kind of experiment: MgcRacGAP GTPase-activating activity inhibitors, confirmation, biochemical, ADP Hunter fluorescence, primary and confirmatory (AID 624330). Format: functional.

Assay [8] deals with BJ. As to the kind of experiment: cytotoxicity toward BJ-TERT fibroblasts, dose response, cell-based, RAS-independent, luminescence (AID 1933). Format: functional. The conditions noted are these: Homo sapiens.
Assay [9] in a line: microbe, parasite or virus in culture. The following applies: Mycobacterium tuberculosis. Format: functional.
The nature of assay [10]: inhibitors of intracellular T. cruzi replication, confirmation, NIH3T3 host cells, beta-gal luminescence (AID 2044).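 Also: intracellular parasites grown in NIH/3T3 mouse fibroblasts as host cells; luminescent beta-galactosidase reporter signal from transgenic T. cruzi replicating inside host cells; inhibitors lower the luminescence signal.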 Format: functional, cell-based.
A short description of assay [11]: HeLa cell cytotoxicity, dose response, cytotoxicity control for MgcRacGAP inhibitor project (AID 624300). Format: functional.
Assay [12] has as its system BJ. Put plainly: cells. Format: functional, cell-based. The conditions noted are these: Homo sapiens.
The subject of assay [13] is BJ. As to the kind of experiment: cytotoxicity toward BJ-TERT-LT-ST fibroblasts, dose response, cell-based, RAS-independent, luminescence (AID 1935).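 Also: BJ fibroblasts immortalized with TERT plus LT and ST oncogenes.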 Format: functional. The conditions noted are these: Homo sapiens.
The nature of assay [14]: cytotoxicity toward NIH3T3 fibroblasts, dose response, counter-screen, cell-based, ATP luminescence, mouse fibroblasts (AID 2010).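 Also: cells exposed to compound for about 90 hours before reading.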 Format: functional. In general terms: The purpose of a counterscreen is to sort out artefacts and off-target activity.
Assay [15] in a line: Luminescent dose response cell-based high throughput screening assay for inhibitors of the Janus kinase 2 mutant JAK2V617F. [Related pubchem assays: 1446 (Primary screen.), 1521 (Confirmation assay.), 1486 (Counter screen.)]. Format: functional.
Assay [16] relates to HEK293. As to the kind of experiment: cells. The conditions noted are these: Homo sapiens. This is another data set of the same source.
For assay [17], the target named is T4, Hexokinase HKDC1 (Homo sapiens, UniProt Q2TB90).
T4 sequence (Q2TB90 whole entry): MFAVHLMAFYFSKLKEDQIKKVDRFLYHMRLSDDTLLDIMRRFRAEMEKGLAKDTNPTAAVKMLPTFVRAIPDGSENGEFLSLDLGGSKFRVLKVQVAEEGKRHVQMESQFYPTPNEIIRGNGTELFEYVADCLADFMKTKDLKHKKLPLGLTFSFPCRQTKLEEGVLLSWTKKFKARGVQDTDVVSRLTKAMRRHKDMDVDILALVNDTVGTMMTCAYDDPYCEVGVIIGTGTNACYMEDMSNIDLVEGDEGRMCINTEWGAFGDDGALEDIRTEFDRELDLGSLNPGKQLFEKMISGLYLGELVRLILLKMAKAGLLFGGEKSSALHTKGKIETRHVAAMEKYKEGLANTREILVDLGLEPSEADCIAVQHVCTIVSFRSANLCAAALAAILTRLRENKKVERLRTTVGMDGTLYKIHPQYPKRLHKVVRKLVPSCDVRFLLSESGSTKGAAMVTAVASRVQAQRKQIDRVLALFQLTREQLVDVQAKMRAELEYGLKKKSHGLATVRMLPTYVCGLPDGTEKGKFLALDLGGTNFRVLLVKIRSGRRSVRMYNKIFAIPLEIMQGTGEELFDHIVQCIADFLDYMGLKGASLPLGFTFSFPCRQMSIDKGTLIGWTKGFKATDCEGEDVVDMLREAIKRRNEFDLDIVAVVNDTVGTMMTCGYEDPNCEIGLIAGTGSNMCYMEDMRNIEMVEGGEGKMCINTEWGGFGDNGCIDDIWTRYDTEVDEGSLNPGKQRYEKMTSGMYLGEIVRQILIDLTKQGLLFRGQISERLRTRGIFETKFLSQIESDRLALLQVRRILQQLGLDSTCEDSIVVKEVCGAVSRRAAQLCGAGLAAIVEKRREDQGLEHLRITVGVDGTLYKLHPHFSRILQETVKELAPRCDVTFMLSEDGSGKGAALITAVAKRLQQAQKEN
As to the kind of experiment: SAR analysis of small molecule inhibitors of hexokinase domain containing I (HKDC1). [Related pubchem assays (depositor defined):AID493160, AID493190]. Format: functional.

Assay [18] addresses T5, Hexokinase-1 (Homo sapiens, UniProt P19367).
T5 sequence (P19367 whole entry): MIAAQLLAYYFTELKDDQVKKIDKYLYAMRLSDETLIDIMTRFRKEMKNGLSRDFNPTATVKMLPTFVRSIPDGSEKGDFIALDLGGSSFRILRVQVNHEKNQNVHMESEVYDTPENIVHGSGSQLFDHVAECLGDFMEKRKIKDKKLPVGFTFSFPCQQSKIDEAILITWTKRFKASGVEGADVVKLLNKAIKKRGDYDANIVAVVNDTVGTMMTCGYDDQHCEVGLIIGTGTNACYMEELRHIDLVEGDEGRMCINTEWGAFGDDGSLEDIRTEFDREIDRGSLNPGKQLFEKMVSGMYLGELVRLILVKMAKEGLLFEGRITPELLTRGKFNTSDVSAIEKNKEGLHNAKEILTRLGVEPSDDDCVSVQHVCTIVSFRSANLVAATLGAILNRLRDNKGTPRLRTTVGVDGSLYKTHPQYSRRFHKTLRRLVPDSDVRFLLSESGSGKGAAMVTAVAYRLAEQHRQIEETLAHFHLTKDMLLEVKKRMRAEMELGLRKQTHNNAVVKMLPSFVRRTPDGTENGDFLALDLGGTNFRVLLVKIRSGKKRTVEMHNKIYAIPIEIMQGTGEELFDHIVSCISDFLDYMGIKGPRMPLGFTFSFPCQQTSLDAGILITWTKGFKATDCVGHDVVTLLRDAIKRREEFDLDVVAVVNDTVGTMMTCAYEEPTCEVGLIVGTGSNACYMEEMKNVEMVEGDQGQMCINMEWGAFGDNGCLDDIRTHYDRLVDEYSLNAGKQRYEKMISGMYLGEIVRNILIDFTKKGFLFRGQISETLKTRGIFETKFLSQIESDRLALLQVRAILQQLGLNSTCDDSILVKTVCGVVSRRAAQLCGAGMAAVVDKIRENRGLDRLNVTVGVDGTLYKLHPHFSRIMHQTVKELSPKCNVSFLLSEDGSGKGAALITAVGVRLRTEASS
Put plainly: SAR analysis of small molecule inhibitors of hexokinase domain containing I (HKDC1) in the hexokinase 1 selectivity assay. [Related pubchem assays (depositor defined):AID493160, AID493190]. Format: functional.

Assay [19] concerns the target Glycogen synthase kinase-3 beta (Homo sapiens, UniProt P49841). Put plainly: Inhibition of Human GSK-3 beta Activity Measured in Biochemical System Using Microfluidics - 2063-05_Inhibitor_Dose_DryPowder_Activity. [Related pubchem assays (depositor defined):AID2709].
The target in assay [20] is Glycogen synthase kinase-3 alpha (Homo sapiens, UniProt P49840). As to the kind of experiment: Inhibition of Human GSK-3 alpha Activity Measured in Biochemical System Using Microfluidics - 2063-06_Inhibitor_Dose_DryPowder_Activity. [Related pubchem assays (depositor defined):AID2709].
For assay [21], the target named is T4, Hexokinase HKDC1. As to the kind of experiment: HKDC1 hexokinase inhibitors, SAR follow-up, biochemical, set 2 (AID 588355). Format: functional.
Assay [22] deals with T5, Hexokinase-1. As to the kind of experiment: HK1 enzyme inhibition by HKDC1 hits, SAR follow-up, selectivity assay for HKDC1 inhibitor project, biochemical, set 2, resazurin fluorescence coupled readout (AID 588356). Format: functional.
The next assay concerns Streptococcus. Put plainly: Group A Streptococcus viability loss, dose response, counter-screen for streptokinase expression inhibitor project, luminescence, BacTiterGlo (AID 1915).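 Also: potency for reduction of bacterial viability or growth.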 Format: functional, organism-based.
The next assay relates to Escherichia coli. Put plainly: microbe, parasite or virus in culture.
Assay [23] deals with Streptococcus sp. 'group A'. Put plainly: growth inhibition of control SK(-) GAS strain, dose response, counter-screen for streptokinase expression inhibitor project, luminescence, kanamycin, BacTiterGlo, confirmation (AID 1900). Format: functional, organism-based.

The structures appear in SMILES notation. Calls of active or inactive are those of the source. Where only a bound is given, the exact number is not on record here.

Chain of Glycogen synthase kinase-3 beta (P49841 whole entry): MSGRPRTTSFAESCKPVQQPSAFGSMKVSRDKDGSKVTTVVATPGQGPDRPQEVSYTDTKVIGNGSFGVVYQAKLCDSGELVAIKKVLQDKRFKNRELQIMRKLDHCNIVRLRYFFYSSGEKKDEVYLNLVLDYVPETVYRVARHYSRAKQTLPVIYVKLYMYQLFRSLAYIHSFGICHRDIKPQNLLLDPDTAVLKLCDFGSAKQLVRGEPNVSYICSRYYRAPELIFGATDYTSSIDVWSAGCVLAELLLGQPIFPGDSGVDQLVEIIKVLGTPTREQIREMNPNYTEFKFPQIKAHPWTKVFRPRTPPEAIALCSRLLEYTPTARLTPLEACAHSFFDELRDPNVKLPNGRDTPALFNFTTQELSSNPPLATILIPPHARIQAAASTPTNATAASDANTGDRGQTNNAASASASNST
Chain of Glycogen synthase kinase-3 alpha (P49840 whole entry): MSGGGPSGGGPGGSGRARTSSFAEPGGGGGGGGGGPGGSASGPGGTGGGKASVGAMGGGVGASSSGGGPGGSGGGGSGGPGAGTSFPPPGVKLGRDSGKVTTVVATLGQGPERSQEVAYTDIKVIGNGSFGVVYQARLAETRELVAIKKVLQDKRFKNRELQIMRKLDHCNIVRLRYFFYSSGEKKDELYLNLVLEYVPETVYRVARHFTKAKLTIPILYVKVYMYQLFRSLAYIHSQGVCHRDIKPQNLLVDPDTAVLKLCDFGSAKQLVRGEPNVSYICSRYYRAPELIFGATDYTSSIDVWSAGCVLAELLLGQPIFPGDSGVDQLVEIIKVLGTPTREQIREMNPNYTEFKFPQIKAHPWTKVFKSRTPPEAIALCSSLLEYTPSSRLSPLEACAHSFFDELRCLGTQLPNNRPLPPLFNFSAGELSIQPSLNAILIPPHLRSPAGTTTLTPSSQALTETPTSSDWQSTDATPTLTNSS
Chain of Voltage-gated inwardly rectifying potassium channel KCNH2 (Q12809 whole entry): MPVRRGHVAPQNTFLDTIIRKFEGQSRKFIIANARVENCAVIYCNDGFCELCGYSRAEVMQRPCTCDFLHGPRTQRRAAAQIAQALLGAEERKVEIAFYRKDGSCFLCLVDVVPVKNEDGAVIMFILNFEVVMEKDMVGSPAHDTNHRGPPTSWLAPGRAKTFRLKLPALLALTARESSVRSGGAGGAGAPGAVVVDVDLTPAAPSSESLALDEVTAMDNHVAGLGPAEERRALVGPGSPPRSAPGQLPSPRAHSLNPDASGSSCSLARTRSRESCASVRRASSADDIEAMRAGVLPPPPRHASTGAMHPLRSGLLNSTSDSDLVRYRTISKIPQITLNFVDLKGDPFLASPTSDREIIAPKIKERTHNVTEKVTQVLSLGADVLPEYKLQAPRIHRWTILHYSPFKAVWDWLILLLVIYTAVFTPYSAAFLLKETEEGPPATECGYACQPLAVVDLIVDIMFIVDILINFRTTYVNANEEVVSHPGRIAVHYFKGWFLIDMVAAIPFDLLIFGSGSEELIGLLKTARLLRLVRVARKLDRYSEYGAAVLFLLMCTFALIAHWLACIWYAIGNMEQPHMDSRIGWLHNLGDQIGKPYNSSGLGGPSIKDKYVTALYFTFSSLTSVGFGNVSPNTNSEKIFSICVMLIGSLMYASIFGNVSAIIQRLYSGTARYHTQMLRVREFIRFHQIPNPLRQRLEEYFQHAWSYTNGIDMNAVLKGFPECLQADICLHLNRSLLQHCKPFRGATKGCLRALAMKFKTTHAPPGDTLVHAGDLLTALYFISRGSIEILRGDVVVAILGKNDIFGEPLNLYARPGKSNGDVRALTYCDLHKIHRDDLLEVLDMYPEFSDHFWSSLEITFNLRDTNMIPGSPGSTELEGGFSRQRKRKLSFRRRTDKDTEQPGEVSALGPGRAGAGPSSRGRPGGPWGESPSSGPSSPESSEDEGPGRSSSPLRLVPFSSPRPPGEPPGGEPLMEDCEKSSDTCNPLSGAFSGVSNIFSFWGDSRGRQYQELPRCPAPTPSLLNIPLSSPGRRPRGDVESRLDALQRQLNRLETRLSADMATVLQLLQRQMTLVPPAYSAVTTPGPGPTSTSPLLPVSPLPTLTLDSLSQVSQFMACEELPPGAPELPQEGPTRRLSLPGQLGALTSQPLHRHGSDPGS

As to `Cc1cc([N+](=O)[O-])nn1CCCC(=O)NC1CCCCC1`, the IC50 (in assay [1]; in the assay on HEK293 [2]) was > 67.5 µM (inactive) each time.
Regarding `CCCCCC/C(C=O)=C\c1ccccc1`, the half-maximal activity concentration (AC50) in assay [3] is 50.1 nM (inconclusive).
As for `Cc1cc2[nH]c3c(c[n+](C)c4ccccc34)c2cc1C`, the EC50 is 5.3 µM (active) in assay [4]; > 59.7 µM (inactive) in the assay on HEK293 [6]; 3.9 µM (active) in the assay on BJ [8]; 680 nM (active) in [10]; 5.11 µM (inconclusive) with BJ [12]; 5.36 µM (inconclusive) in the assay on BJ [13]. The concentration giving a half-maximal response (EC50) in assay [14] was 6.13 µM (active); in the assay on HEK293 [16] it was > 59.7 µM (inactive). Moreover, the concentration at half-maximal activity (AC50) in [5] was 372 nM (active). In addition, the IC50 in [7] was 36.2 µM (active); in [15] it was 639 nM (active). Also, the CC50 in assay [9] was 2.06 µM (active); in [11], 11.8 µM (active).
Regarding `COc1cc2c(cc1OC)-c1cc(NCc3cccnc3)nc(=O)n1CC2`, the IC50 on Hexokinase HKDC1 [17] and on Hexokinase-1 [18] was > 80 µM (inactive) each time.
For `CCCCOC(=O)C1C(C)=Nc2ncnn2C1c1cccc(OC)c1OC` (stereo not given), the half-maximal activity concentration (AC50) in assay [19] was 538 nM (active); in [20], 989 nM (active).
As to `CC(=O)NC1C(=O)N(Cc2ccccc2)c2ccc(C)cc21` (stereo not given), the IC50 at Hexokinase HKDC1 [21] and on Hexokinase-1 [22] was > 80 µM (inactive) in each case.
As for `CCN1CCN(c2cc3c(cc2F)c(=O)c(C(=O)O)cn3C2CC2)CC1` [ENROFLOXACIN], the EC50 is 1.04 µM (active) in the assay on Streptococcus and 1.22 µM (active) in [23]. For the same compound, the AC50 with Escherichia coli was 2.46 µM (active).
